Test results as given in the NIST ThermoML archive (doi:10.1016/j.fluid.2014.09.014).

Assay: refractive index (other wavelength) (dimensionless); xn = mol fraction of the nth substance listed
Conditions: 101 kPa, Liquid, Standard Abbe refractometry

CC(C)OC(C)C [diisopropyl ether] + CC(C)O
refractive index
Conditions	Wavelength=404.7 nm	Wavelength=435.8 nm	Wavelength=486.1 nm	Wavelength=546.1 nm	Wavelength=587.6 nm	Wavelength=589.3 nm	Wavelength=632.8 nm	Wavelength=644 nm	Wavelength=706.5 nm
298.15 K, x1 = 0.0277	–	–	–	–	–	1.37492	1.3736	1.37329	1.37183
298.15 K, x1 = 0.0507	–	–	–	–	–	1.37483	1.37352	1.37322	1.37174
298.15 K, x1 = 0.051	–	–	–	–	–	1.37489	1.37358	1.37327	1.37179
298.15 K, x1 = 0.0717	–	–	–	–	–	1.37462	1.37331	1.373	1.37152
298.15 K, x1 = 0.1528	–	–	–	–	–	1.37401	1.3727	1.3724	1.37093
298.15 K, x1 = 0.1553	–	–	–	–	–	1.37401	1.3727	1.3724	1.37093
298.15 K, x1 = 0.1938	–	–	–	–	–	1.37373	1.37243	1.37213	1.37068
298.15 K, x1 = 0.2029	–	–	–	–	–	1.37346	1.37215	1.37185	1.37039
298.15 K, x1 = 0.245	–	–	–	–	–	1.37306	1.37177	1.37147	1.37002
298.15 K, x1 = 0.297	–	–	–	–	–	1.37259	1.3713	1.371	1.36955
298.15 K, x1 = 0.2973	–	–	–	–	–	1.37284	1.37156	1.37126	1.3698
298.15 K, x1 = 0.3068	–	–	–	–	–	1.37238	1.37108	1.37078	1.36933
298.15 K, x1 = 0.398	–	–	–	–	–	1.37122	1.36993	1.36964	1.36819
298.15 K, x1 = 0.4609	–	–	–	–	–	1.37063	1.36933	1.36903	1.36758
298.15 K, x1 = 0.5434	–	–	–	–	1.36987	1.36981	1.36853	1.36823	1.36678
298.15 K, x1 = 0.6032	–	–	–	–	1.3693	1.36925	1.36797	1.36767	1.36623
298.15 K, x1 = 0.6371	–	–	–	–	1.36894	1.36889	1.36762	1.36731	1.36587
298.15 K, x1 = 0.701	–	–	–	–	1.36828	1.36823	1.36695	1.36666	1.36523
298.15 K, x1 = 0.754	–	–	–	–	1.36792	1.36786	1.36659	1.36629	1.36485
298.15 K, x1 = 0.791	–	–	–	–	1.36756	1.3675	1.36623	1.36593	1.3645
298.15 K, x1 = 0.8296	–	–	–	–	1.36723	1.36717	1.36589	1.36559	1.36417
298.15 K, x1 = 0.8864	–	–	–	–	1.367	1.36695	1.36567	1.36537	1.36394
298.15 K, x1 = 0.8903	–	–	–	–	1.36659	1.36653	1.36526	1.36497	1.36354
298.15 K, x1 = 0.9113	–	–	–	–	1.3667	1.36631	1.36504	1.36475	1.36332
298.15 K, x1 = 0.9547	–	–	–	–	1.36596	1.36587	1.36459	1.3643	1.36289
298.15 K, x1 = 0.973	–	–	–	–	1.3656	1.36557	1.3643	1.364	1.36258
298.15 K, x1 = 0.9771	–	–	–	–	1.36557	1.36551	1.36423	1.36393	1.36281
298.15 K, x1 = 1	–	–	–	–	1.36535	1.3653	1.36402	1.36373	1.36237
303.15 K, x1 = 0.0277	1.38362	1.3806	1.37718	1.37435	1.37285	1.37279	1.37149	1.37119	1.36973
303.15 K, x1 = 0.0507	1.38359	1.38056	1.37714	1.3743	1.3728	1.37274	1.37145	1.37115	1.36969
303.15 K, x1 = 0.051	1.38351	1.38049	1.37707	1.37423	1.37273	1.37268	1.37138	1.37107	1.36962
303.15 K, x1 = 0.0717	1.38322	1.3802	1.37678	1.37395	1.37244	1.37238	1.37109	1.37079	1.36934
303.15 K, x1 = 0.1528	1.38258	1.37956	1.37614	1.37331	1.37181	1.37176	1.37047	1.37018	1.36872
303.15 K, x1 = 0.1553	1.38258	1.37956	1.37614	1.37331	1.37181	1.37176	1.37047	1.37018	1.36872
303.15 K, x1 = 0.1938	1.38229	1.37926	1.37584	1.37303	1.37153	1.37147	1.37018	1.36988	1.36843
303.15 K, x1 = 0.2029	1.38193	1.37892	1.37549	1.37266	1.37116	1.37111	1.36981	1.36952	1.36807
303.15 K, x1 = 0.245	1.38148	1.37846	1.37506	1.37223	1.37075	1.37069	1.36941	1.36911	1.36767
303.15 K, x1 = 0.297	1.38091	1.37798	1.37446	1.37163	1.37013	1.37008	1.3688	1.3685	1.36705
303.15 K, x1 = 0.2973	1.38111	1.37809	1.37467	1.37184	1.37036	1.37031	1.36902	1.36872	1.36727
303.15 K, x1 = 0.3068	1.38076	1.37775	1.37433	1.37149	1.37001	1.36996	1.36867	1.36837	1.36692
303.15 K, x1 = 0.398	1.37951	1.3765	1.37309	1.37025	1.36877	1.36872	1.36744	1.36715	1.3657
303.15 K, x1 = 0.4609	1.37885	1.37585	1.37245	1.3696	1.36818	1.36807	1.3668	1.3665	1.36501
303.15 K, x1 = 0.5434	1.37802	1.37503	1.37161	1.36879	1.36731	1.36726	1.36598	1.36567	1.36425
303.15 K, x1 = 0.6032	1.37738	1.3744	1.37096	1.36815	1.36667	1.36661	1.36533	1.36504	1.36362
303.15 K, x1 = 0.6371	1.37701	1.37401	1.37059	1.36779	1.36631	1.36626	1.36497	1.36466	1.36326
303.15 K, x1 = 0.701	1.37631	1.37333	1.36992	1.36711	1.36564	1.36559	1.36431	1.36401	1.36259
303.15 K, x1 = 0.754	1.37593	1.37295	1.36954	1.36673	1.36525	1.36519	1.36391	1.36362	1.36221
303.15 K, x1 = 0.791	1.37553	1.37254	1.36913	1.36633	1.36485	1.3648	1.36352	1.36323	1.36182
303.15 K, x1 = 0.8296	1.37518	1.37221	1.3688	1.36599	1.36453	1.36447	1.3632	1.3629	1.36148
303.15 K, x1 = 0.8864	1.37495	1.37197	1.36856	1.36576	1.3643	1.36424	1.36297	1.36267	1.36126
303.15 K, x1 = 0.8903	1.37451	1.37154	1.36813	1.36533	1.36386	1.36381	1.36254	1.36225	1.36083
303.15 K, x1 = 0.9113	1.37428	1.37131	1.36791	1.36511	1.36365	1.3636	1.36233	1.36203	1.36061
303.15 K, x1 = 0.9547	1.37382	1.37084	1.36747	1.36465	1.36319	1.36314	1.36187	1.36157	1.36016
303.15 K, x1 = 0.973	1.37347	1.3705	1.36711	1.3643	1.36285	1.36279	1.36153	1.36123	1.35983
303.15 K, x1 = 0.9771	1.37338	1.3704	1.36702	1.36421	1.36275	1.3627	1.36145	1.36115	1.35972
303.15 K, x1 = 1	1.37321	1.37022	1.36687	1.36406	1.3626	1.36255	1.3613	1.361	1.3596
